In ChEMBL document CHEMBL4052731, “Interconvertible geometric isomers of Plasmodium falciparum dihydroorotate dehydrogenase inhibitors exhibit multiple binding modes” (Bioorg Med Chem Lett, 2017) one finds IC50, Ki and Ratio IC50 data, which are given here for twelve compounds.

Experiment [1] in a line: Inhibition of homologous location truncated N-terminal His-tagged Plasmodium falciparum DHODH expressed in Escherichia coli pyrD Sphi6745 by spectrophotometric analysis.
A short description of experiment [2]: Selectivity ratio of IC50 for homologous location truncated N-terminal His-tagged human DHODH to IC50 for homologous location truncated N-terminal His-tagged Plasmodium falciparum DHODH.
In experiment [3] the target is Dihydroorotate dehydrogenase (quinone), mitochondrial (Homo sapiens, UniProt Q02127). As to the kind of experiment: Inhibition of homologous location truncated N-terminal His-tagged human DHODH expressed in Escherichia coli pyrD Sphi6745 by spectrophotometric analysis.
Chain of Dihydroorotate dehydrogenase (quinone), mitochondrial (Q02127 whole entry, the tested form may be a part): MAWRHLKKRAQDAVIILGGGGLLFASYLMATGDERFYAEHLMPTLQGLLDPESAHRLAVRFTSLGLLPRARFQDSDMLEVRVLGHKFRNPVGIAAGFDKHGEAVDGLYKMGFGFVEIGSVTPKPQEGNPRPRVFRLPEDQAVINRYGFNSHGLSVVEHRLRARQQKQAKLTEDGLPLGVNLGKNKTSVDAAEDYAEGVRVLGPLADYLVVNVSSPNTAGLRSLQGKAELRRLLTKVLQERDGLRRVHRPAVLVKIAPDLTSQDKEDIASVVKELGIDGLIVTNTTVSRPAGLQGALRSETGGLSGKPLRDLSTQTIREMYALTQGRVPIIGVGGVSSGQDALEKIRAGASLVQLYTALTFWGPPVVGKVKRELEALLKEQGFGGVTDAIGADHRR

Bounds are passed on as bounds.

One may read the IC50 as the midpoint of a concentration-inhibition curve. `CCOC(=O)C(=CNc1ccc2c(c1)c1ccccc1n2CC)C(=O)OCC` returned an IC50 in experiment [1] of 4400 nM. As to `CCn1c2ccccc2c2cc(NC=C(C(C)=O)C(C)=O)ccc21`, the IC50 in experiment [1] is above 100000 nM. Take `CCn1c2ccccc2c2cc(NC=C3C(=O)OC(C)(C)OC3=O)ccc21`: the IC50 in experiment [1] was above 100000 nM. A word on the Ki: it is a measure of affinity in units of concentration, obtained from inhibition or displacement. The low end stands for tighter binding, the high end for weaker binding. In experiment [1], `CCOC(=O)/C(C#N)=C\Nc1ccc2c(c1)c1ccccc1n2CC` displayed an IC50 of 280 to 440 nM and a Ki of 50 nM. Moreover, the Ratio IC50 in experiment [2] is 1000. Regarding `CCOC(=O)/C(C#N)=C(/C)Nc1ccc2c(c1)c1ccccc1n2CC`, the IC50 in experiment [1] is above 100000 nM. On the same count and under the same terms, the value for `CC1(C)OC(=O)C(=CNc2ccc3sc4ccccc4c3c2)C(=O)O1` was above 100000 nM; that for `CCOC(=O)/C(C#N)=C\Nc1ccc2sc3ccccc3c2c1` was 1200 nM.

For `CCOC(=O)/C(C#N)=C(/C)Nc1ccc2sc3ccccc3c2c1`, in experiment [1], the IC50 is above 100000 nM.

`CC(=O)C(=CNc1ccc2sc3ccccc3c2c1)C(C)=O` came in with an IC50 in experiment [1] above 100000 nM. In experiment [1], `CCOC(=O)/C(=C/Nc1ccc2c(c1)c1ccccc1n2CC)[N+](=O)[O-]` yielded an IC50 of 94 nM and a Ki of 37 nM. In experiment [3], this compound displayed an IC50 above 100000 nM. On the same counts, the results for `CCOC(=O)/C(=C\Nc1ccc2sc3ccccc3c2c1)[N+](=O)[O-]` are 380 nM, 150 nM and above 100000 nM. In experiment [1], `CCOC(=O)C(=CNc1ccc2sc3ccccc3c2c1)C(=O)OCC` showed an IC50 of 160 nM and a Ki of 20 nM.
